Columns and labels:
PRMT5-MEP50 = PRMT5-MEP50 (Homo sapiens, UniProt O14744); experiment: PRMT5 assay (3H-SAM flashplate scintillation); type: biochemical; conditions: PRMT5-MEP50 2.5 nM, histone H4 peptide 100 nM, 3H-SAM 250 nM, 60 min
Procedure: Assays were performed in a 25 μl-volume in 384-well V-bottom polypropylene microplates (Greiner Bio-One, cat. No. 781280) at ambient temperature. Optimized 1× assay buffer was 20 mM Tris-HCl pH 8.0, 1 mM DTT, […]. For compound screening PRMT5-MEP50 (final concentration, f.c.=2.5 nM) was added using a Multidrop Combi (ThermoFisher Scientific, Waltham, Mass.) and preincubated for 5 min. Reactions were started by adding 3′ biotinylated histone H4 peptide acetylated on serine 1 (Ac-[…]-Biotin) (f.c.=100 nM) and 3H-SAM (f.c.=250 nM) substrates. Reactions proceeded for 60 minutes and were quenched with excess non-radioactive SAM (f.c.=15 μM). The reactions were then transferred to streptavidin-coated flashplates and incubated for 2 hours at 25° C. Following two washing cycles with 0.1% Tween-20, the plates were sealed and read on a TopCount (PerkinElmer, Waltham, Mass.) plate-based scintillation counter. For determination of kinetic parameters, reaction times were optimized so that measurements were taken during the initial velocity phase of the reaction.

METTL3/METTL14 = METTL3/METTL14 (Homo sapiens, UniProt Q86U44); experiment: METTL3-14 standard enzyme assay (3H-SAM flashplate scintillation); type: biochemical; conditions: METTL3/METTL14 2.5 nM, RNA 100 nM, 3H-SAM 100 nM, 30 min
METTL3/METTL14, sequence (Q86U44 whole entry, species assumed): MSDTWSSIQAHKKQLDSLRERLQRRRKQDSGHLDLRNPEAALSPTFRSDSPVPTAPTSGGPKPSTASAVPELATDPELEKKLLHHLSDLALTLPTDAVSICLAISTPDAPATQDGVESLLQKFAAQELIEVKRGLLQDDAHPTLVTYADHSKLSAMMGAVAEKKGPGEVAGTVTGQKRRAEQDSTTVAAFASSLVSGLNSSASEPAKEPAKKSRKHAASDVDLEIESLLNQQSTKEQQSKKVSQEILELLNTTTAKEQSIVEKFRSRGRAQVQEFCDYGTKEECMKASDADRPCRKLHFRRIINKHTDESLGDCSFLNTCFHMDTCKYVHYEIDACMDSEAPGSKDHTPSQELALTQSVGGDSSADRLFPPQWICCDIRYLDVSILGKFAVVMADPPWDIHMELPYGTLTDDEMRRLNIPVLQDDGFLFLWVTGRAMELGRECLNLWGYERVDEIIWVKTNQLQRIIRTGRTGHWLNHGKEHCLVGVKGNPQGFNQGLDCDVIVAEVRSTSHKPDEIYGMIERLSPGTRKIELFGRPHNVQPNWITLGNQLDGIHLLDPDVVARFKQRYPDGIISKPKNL
METTL3/METTL14, sequence (Q9HCE5 whole entry partner, species assumed): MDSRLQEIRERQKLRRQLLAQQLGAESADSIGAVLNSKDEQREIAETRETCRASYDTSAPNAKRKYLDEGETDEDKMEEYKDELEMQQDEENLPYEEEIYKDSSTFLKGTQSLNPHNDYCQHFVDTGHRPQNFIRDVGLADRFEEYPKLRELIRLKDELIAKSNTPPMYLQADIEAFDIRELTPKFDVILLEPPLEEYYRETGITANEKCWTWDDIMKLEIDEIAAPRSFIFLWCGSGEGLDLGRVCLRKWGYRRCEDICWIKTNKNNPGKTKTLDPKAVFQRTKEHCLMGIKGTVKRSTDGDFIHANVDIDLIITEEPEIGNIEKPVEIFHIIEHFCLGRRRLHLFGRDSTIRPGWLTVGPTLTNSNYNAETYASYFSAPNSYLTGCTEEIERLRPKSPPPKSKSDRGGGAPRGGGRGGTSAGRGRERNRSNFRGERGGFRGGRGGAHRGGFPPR
Procedure: METTL3-14 Standard Enzyme Assay
Assays were performed in a 25 μl-volume in 384-well V-bottom polypropylene microplates (Greiner Bio-One, cat. No. 781280) at ambient temperature. Optimized 1× assay buffer was 20 mM HEPES pH 7.5, 50 mM KCl, 250 μM MgCl2, 1 mM DTT, 0.01% Tween, 0.01% BSG, 0.004 U/μl RNAseOUT (cat. No. 10777019, ThermoFisher Scientific, Waltham, Mass.). For compound screening METTL3/METTL14 (final concentration, f.c.=2.5 nM) was added using a Multidrop Combi (ThermoFisher Scientific, Waltham, Mass.) and preincubated for 5 min. Reactions were started by adding 3′ biotinylated RNA (UCUGGACUAAA-biotin) (f.c.=100 nM) and 3H-SAM (f.c.=100 nM) substrates. Reactions proceeded for 30 minutes and were quenched with excess non-radioactive SAM (f.c.=15 μM). The reactions were then transferred to streptavidin-coated flashplates and incubated for 2 hours at 25° C. Following two washing cycles with 0.1% Tween-20, the plates were sealed and read on a TopCount (PerkinElmer, Waltham, Mass.) plate-based scintillation counter. For determination of kinetic parameters, reaction times were optimized so that measurements were taken during the initial velocity phase of the reaction.

PRMT5-MEP50, sequence (O14744 whole entry): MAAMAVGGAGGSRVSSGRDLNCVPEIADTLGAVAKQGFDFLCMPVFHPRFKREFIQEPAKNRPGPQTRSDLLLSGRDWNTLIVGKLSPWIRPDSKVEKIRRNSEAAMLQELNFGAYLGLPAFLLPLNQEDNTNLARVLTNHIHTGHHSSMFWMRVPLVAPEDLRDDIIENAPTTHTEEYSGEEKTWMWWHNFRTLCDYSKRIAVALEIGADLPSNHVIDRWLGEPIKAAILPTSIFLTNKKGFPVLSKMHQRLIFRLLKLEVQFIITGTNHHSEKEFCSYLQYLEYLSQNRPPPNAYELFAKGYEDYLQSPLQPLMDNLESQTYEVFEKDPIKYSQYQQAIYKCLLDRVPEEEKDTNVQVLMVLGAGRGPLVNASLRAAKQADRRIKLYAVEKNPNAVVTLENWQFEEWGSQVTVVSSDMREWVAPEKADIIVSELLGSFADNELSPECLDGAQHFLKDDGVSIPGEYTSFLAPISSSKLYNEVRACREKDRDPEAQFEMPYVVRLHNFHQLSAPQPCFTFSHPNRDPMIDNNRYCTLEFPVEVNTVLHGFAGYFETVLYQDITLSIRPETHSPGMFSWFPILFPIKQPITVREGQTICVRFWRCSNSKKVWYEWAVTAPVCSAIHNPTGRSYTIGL
PRMT5-MEP50, sequence (Q9BQA1 whole entry partner): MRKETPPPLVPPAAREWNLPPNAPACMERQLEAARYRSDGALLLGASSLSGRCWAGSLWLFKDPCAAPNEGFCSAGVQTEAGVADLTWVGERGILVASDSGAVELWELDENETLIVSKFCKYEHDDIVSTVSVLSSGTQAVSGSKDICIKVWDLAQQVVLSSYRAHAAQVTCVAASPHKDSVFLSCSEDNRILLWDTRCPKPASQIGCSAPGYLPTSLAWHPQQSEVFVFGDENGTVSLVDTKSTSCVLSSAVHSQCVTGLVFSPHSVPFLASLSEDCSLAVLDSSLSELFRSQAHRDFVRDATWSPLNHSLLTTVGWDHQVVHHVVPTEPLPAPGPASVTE

CN(CCS(C)(=O)=O)c1ccc2ccc(OCc3cncc(-n4cc(-c5ccn(C)n5)c5c(N)ncnc54)c3)cc2n1 [Compound I-175]
IC50 (PRMT5-MEP50): > 1 µM
IC50 (METTL3/METTL14): 0.1 to 1 µM

Cn1ccc(-c2cn(-c3cncc(COc4ccc(C(=O)N5CCNCC5)c(N)c4)c3)c3ncnc(N)c23)n1 [Compound I-176]
IC50 (PRMT5-MEP50): > 1 µM
IC50 (METTL3/METTL14): 0.1 to 1 µM

CN(C)C(=O)c1ccc(OCc2cncc(-n3cc(-c4ccn(C)n4)c4c(N)ncnc43)c2)cc1N [Compound I-177]
IC50 (PRMT5-MEP50): > 1 µM
IC50 (METTL3/METTL14): > 1 µM

Cn1ccc(-c2cn(-c3cncc(COc4ccc(C(=O)N5CCOCC5)c(N)c4)c3)c3ncnc(N)c23)n1 [Compound I-178]
IC50 (PRMT5-MEP50): > 1 µM
IC50 (METTL3/METTL14): > 1 µM

CN(CC1CC1)C(=O)c1ccc(OCc2cncc(-n3cc(-c4ccn(C)n4)c4c(N)ncnc43)c2)cc1N [Compound I-179]
IC50 (PRMT5-MEP50): > 1 µM
IC50 (METTL3/METTL14): > 1 µM

CCc1ccc2ccc(OCc3cncc(-n4cc(-c5ccn(C)n5)c5c(N)ncnc54)c3)cc2n1 [Compound I-180]
IC50 (PRMT5-MEP50): > 1 µM
IC50 (METTL3/METTL14): 0.01 to 0.1 µM

Cn1ccc(-c2cn(-c3cncc(COc4cc(F)ccc4C(=O)NC4CCOCC4)c3)c3ncnc(N)c23)n1 [Compound I-181]
IC50 (PRMT5-MEP50): > 1 µM
IC50 (METTL3/METTL14): > 1 µM

Cn1ccc(-c2cn(-c3cncc(COc4ccc5cnc(N6CCC6)nc5c4)c3)c3ncnc(N)c23)n1 [Compound I-183]
IC50 (PRMT5-MEP50): > 1 µM
IC50 (METTL3/METTL14): > 1 µM

COc1ccccc1-c1cn(-c2cncc(COc3ccc4ccc(N5CCC5)nc4c3)c2)c2ncncc12 [Compound I-184]
IC50 (PRMT5-MEP50): > 1 µM
IC50 (METTL3/METTL14): > 1 µM

Cn1ccc(-c2cn(-c3cncc(COc4ccc(C(=O)N5CCC(F)(F)CC5)c(N)c4)c3)c3ncnc(N)c23)n1 [Compound I-186]
IC50 (PRMT5-MEP50): > 1 µM
IC50 (METTL3/METTL14): > 1 µM

Cn1ccc(-c2cn(-c3cncc(COc4ccc(C(=O)NC5CCOCC5)c(N)c4)c3)c3ncnc(N)c23)n1 [Compound I-187]
IC50 (PRMT5-MEP50): > 1 µM
IC50 (METTL3/METTL14): 0.1 to 1 µM

Cn1ccc(-c2cn(-c3cncc(COc4ccc5ccc(N6CCC6=O)nc5c4)c3)c3ncnc(N)c23)n1 [Compound I-188]
IC50 (PRMT5-MEP50): > 1 µM
IC50 (METTL3/METTL14): > 1 µM

Cn1ccc(-c2cn(-c3cncc(COc4ccc5ccc(C6CCOCC6)nc5c4)c3)c3ncnc(N)c23)n1 [Compound I-189]
IC50 (PRMT5-MEP50): > 1 µM
IC50 (METTL3/METTL14): 0.1 to 1 µM

Nc1ncnc2c(-c3cncc(COc4ccc5ccc(N6CCC6)nc5c4)c3)c[nH]c12 [Compound I-190]
IC50 (PRMT5-MEP50): > 1 µM
IC50 (METTL3/METTL14): < 0.01 µM

COCCN(C)C(=O)c1ccc(OCc2cncc(-n3cc(-c4ccn(C)n4)c4c(N)ncnc43)c2)cc1N [Compound I-191]
IC50 (PRMT5-MEP50): > 1 µM
IC50 (METTL3/METTL14): > 1 µM

Cn1ccc(-c2cn(-c3cncc(COc4ccc5ccc(N6CC7(CCC7)C6)nc5c4)c3)c3ncnc(N)c23)n1 [Compound I-194]
IC50 (PRMT5-MEP50): > 1 µM
IC50 (METTL3/METTL14): 0.1 to 1 µM

Cn1ccc(-c2cn(-c3cncc(COc4ccc5ccc(N6CCCC6=O)nc5c4)c3)c3ncnc(N)c23)n1 [Compound I-195]
IC50 (PRMT5-MEP50): > 1 µM
IC50 (METTL3/METTL14): > 1 µM

Cn1ccc(-c2cn(-c3cncc(COc4ccc5ccc(N6CCOCC6)nc5c4)c3)c3ncnc(N)c23)n1 [Compound I-196]
IC50 (PRMT5-MEP50): 0.1 to 1 µM
IC50 (METTL3/METTL14): 0.01 to 0.1 µM

Cn1ccc(-c2cn(-c3cncc(COc4ccc5ccc(N6CCC(F)(F)CC6)nc5c4)c3)c3ncnc(N)c23)n1 [Compound I-197]
IC50 (PRMT5-MEP50): > 1 µM
IC50 (METTL3/METTL14): 0.1 to 1 µM

CCc1cc(N2CCC2)nc2cc(F)cc(OCc3cncc(-n4cc(C5CCCO5)c5c(N)ncnc54)c3)c12 (stereo not shown) [Compound I-198]
IC50 (PRMT5-MEP50): > 1 µM
IC50 (METTL3/METTL14): > 1 µM

CCc1cc(N2CCC2)nc2cc(OCc3cncc(-n4cc(C5CCCO5)c5c(N)ncnc54)c3)cc(F)c12 (stereo not shown) [Compound I-199]
IC50 (PRMT5-MEP50): > 1 µM
IC50 (METTL3/METTL14): > 1 µM

Cn1ccc(-c2cn(-c3cncc(COc4ccc(CN5CCC(CO)CC5)c(N)c4)c3)c3ncnc(N)c23)n1 [Compound I-200]
IC50 (PRMT5-MEP50): > 1 µM
IC50 (METTL3/METTL14): 0.1 to 1 µM

Cn1ccc(-c2cn(-c3cncc(COc4ccc5ccc(N6CC7(COC7)C6)nc5c4)c3)c3ncnc(N)c23)n1 [Compound I-201]
IC50 (PRMT5-MEP50): > 1 µM
IC50 (METTL3/METTL14): 0.1 to 1 µM

CC(=O)NC1CN(c2ccc3ccc(OCc4cncc(-n5cc(-c6ccn(C)n6)c6c(N)ncnc65)c4)cc3n2)C1 [Compound I-202]
IC50 (PRMT5-MEP50): > 1 µM
IC50 (METTL3/METTL14): 0.01 to 0.1 µM

Cn1ccc(-c2cn(-c3cncc(COc4ccc5ccc(N6CC7(CC7)C6)nc5c4)c3)c3ncnc(N)c23)n1 [Compound I-203]
IC50 (PRMT5-MEP50): > 1 µM
IC50 (METTL3/METTL14): 0.01 to 0.1 µM

CN1CCN(c2ccc3ccc(OCc4cncc(-n5cc(-c6ccn(C)n6)c6c(N)ncnc65)c4)cc3n2)CC1 [Compound I-204]
IC50 (PRMT5-MEP50): > 1 µM
IC50 (METTL3/METTL14): 0.1 to 1 µM

Nc1ncnc2c1c(C1CCCO1)cn2-c1cncc(COc2cnc3ccc(N4CCC4)nc3c2)c1 (stereo not shown) [Compound I-207]
IC50 (PRMT5-MEP50): > 1 µM
IC50 (METTL3/METTL14): > 1 µM

Cn1ccc(-c2cn(-c3cncc(COc4cc(F)c5ccc(N6CCC6)nc5c4)c3)c3ncnc(N)c23)n1 [Compound I-208]
IC50 (PRMT5-MEP50): > 1 µM
IC50 (METTL3/METTL14): 0.01 to 0.1 µM

CN(CCO)C(=O)c1ccc(OCc2cncc(-n3cc(-c4ccn(C)n4)c4c(N)ncnc43)c2)cc1N [Compound I-209]
IC50 (PRMT5-MEP50): > 1 µM
IC50 (METTL3/METTL14): > 1 µM

Cn1ccc(-c2cn(-c3cncc(COc4ccc(CN5CCOCC5)c(N)c4)c3)c3ncnc(N)c23)n1 [Compound I-210]
IC50 (PRMT5-MEP50): > 1 µM
IC50 (METTL3/METTL14): 0.1 to 1 µM

Cn1ccc(-c2cn(-c3cncc(COc4ccc(-c5ncco5)c(N)c4)c3)c3ncnc(N)c23)n1 [Compound I-211]
IC50 (PRMT5-MEP50): > 1 µM
IC50 (METTL3/METTL14): > 1 µM

Cn1ccc(-c2cn(-c3cncc(COc4ccc5ccc(N6CCOCC6=O)nc5c4)c3)c3ncnc(N)c23)n1 [Compound I-214]
IC50 (PRMT5-MEP50): > 1 µM
IC50 (METTL3/METTL14): > 1 µM

Nc1cc(OCc2cncc(-n3ccc4c(N)ncnc43)c2)ccc1C(=O)N1CCNCC1 [Compound I-215]
IC50 (PRMT5-MEP50): > 1 µM
IC50 (METTL3/METTL14): > 1 µM

CN(C)CCNC(=O)c1ccc(OCc2cncc(-n3ccc4c(N)ncnc43)c2)cc1N [Compound I-216]
IC50 (PRMT5-MEP50): > 1 µM
IC50 (METTL3/METTL14): > 1 µM

CN(C)CCNC(=O)c1ccc(OCc2cncc(-n3cc(Br)c4c(N)ncnc43)c2)cc1N [Compound I-218]
IC50 (PRMT5-MEP50): > 1 µM
IC50 (METTL3/METTL14): > 1 µM

Cn1ccc(-c2cn(-c3cncc(CSc4ccc5ccc(N6CCC6)nc5c4)c3)c3ncnc(N)c23)n1 [Compound I-219, 7-[5-({[2-(azetidin-1-yl)quinolin-7-yl]sulfanyl}methyl)pyridin-3-yl]-5-(1-methyl-1H-pyrazol-3-yl)-7H-pyrrolo[2,3-d]pyrimidin-4-amine]
IC50 (PRMT5-MEP50): > 1 µM
IC50 (METTL3/METTL14): < 0.01 µM

Cn1ccc(-c2cn(-c3cncc(CS(=O)(=O)c4ccc5ccc(N6CCC6)nc5c4)c3)c3ncnc(N)c23)n1 [Compound I-220, 7-[5-({[2-(azetidin-1-yl)quinolin-7-yl]sulfonyl}methyl)pyridin-3-yl]-5-(1-methyl-1H-pyrazol-3-yl)-7H-pyrrolo[2,3-d]pyrimidin-4-amine]
IC50 (PRMT5-MEP50): > 1 µM
IC50 (METTL3/METTL14): > 1 µM

Cn1ccc(-c2cn(-c3cncc(C[S+]([O-])c4ccc5ccc(N6CCC6)nc5c4)c3)c3ncnc(N)c23)n1 (stereo not shown) [Compound I-221, 7-[5-({[2-(azetidin-1-yl)quinolin-7-yl]sulfinyl}methyl)pyridin-3-yl]-5-(1-methyl-1H-pyrazol-3-yl)-7H-pyrrolo[2,3-d]pyrimidin-4-amine]
IC50 (PRMT5-MEP50): 0.1 to 1 µM
IC50 (METTL3/METTL14): > 1 µM

Cn1ccc(-c2cn(-c3cncc(COC(=O)Nc4cccc(Br)n4)c3)c3ncnc(N)c23)n1 [Compound I-223]
IC50 (PRMT5-MEP50): > 1 µM
IC50 (METTL3/METTL14): > 1 µM

Cn1ccc(-c2cn(-c3cncc(COC(=O)Nc4cccc(N5CCC5)n4)c3)c3ncnc(N)c23)n1 [Compound I-224, {5-[4-amino-5-(1-methyl-1H-pyrazol-3-yl)-7H-pyrrolo[2,3-d]pyrimidin-7-yl]pyridin-3-yl}methyl N-[6-(azetidin-1-yl)pyridin-2-yl]carbamate]
IC50 (PRMT5-MEP50): > 1 µM
IC50 (METTL3/METTL14): > 1 µM

Cn1ccc(-c2cn(-c3cncc(CNC(=O)Nc4cccc(N5CCC5)n4)c3)c3ncnc(N)c23)n1 [Compound I-225, 1-({5-[4-amino-5-(1-methyl-1H-pyrazol-3-yl)-7H-pyrrolo[2,3-d]pyrimidin-7-yl]pyridin-3-yl}methyl)-3-[6-(azetidin-1-yl)pyridin-2-yl]urea]
IC50 (PRMT5-MEP50): > 1 µM
IC50 (METTL3/METTL14): > 1 µM

Reference: patent publication US20220372040A1, “METTL3 MODULATORS” (Accent Therapeutics, Inc., priority 2020, published 2022)
